Source: patent publication US20100267561A1, “HERBICIDAL PYRIDAZINONE DERIVATIVES” (priority 2007, published 2010)

What was measured:
Format in all cases: in vivo
[1] = test system: Italian ryegrass (Lolium multiflorum); test: Test B pre-/postemergence plant response
Method in brief: (§1)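 Visual scoring from 0 (no effect) to 100 (complete control) against untreated controls was done 13 to 15 days after greenhouse treatment. Chemicals were formulated in a surfactant-containing non-phytotoxic solvent and applied to soil preemergence or to 1- to 4-leaf (2-18 cm) plants postemergence.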

[2] = test system: bermudagrass (Cynodon dactylon); test: Test B pre-/postemergence plant response; conditions: for Bermudagrass plant response rating: 8 g ai/ha
Method in brief: as §1

[3] = test system: johnsongrass (Sorghum halepense); test: Test B pre-/postemergence plant response
Method in brief: as §1

[4] = test system: morningglory (Ipomoea coccinea); test: Test A pre-/postemergence plant response
Method in brief: (§2)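 Greenhouse pot test: loam–sand soil; pre- and postemergence sprays applied same day; post plants 2–10 cm, 1–2 leaves. Readout ~10 d, visual % injury vs untreated (0 = none, 100 = complete control).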

[5] = test system: pigweed (Amaranthus retroflexus); test: Test A pre-/postemergence plant response
Method in brief: as §2

[6] = test system: barnyardgrass (Echinochloa crus-galli); test: Test A pre-/postemergence plant response
Method in brief: as §2

corn (Zea mays) = test: Test A pre-/postemergence plant response
Method in brief: as §2

[7] = test system: large crabgrass (Digitaria sanguinalis); test: Test A pre-/postemergence plant response
Method in brief: as §2

[8] = test system: winter barley (Hordeum vulgare); test: Test B postemergence plant response; conditions: for Plant response rating, Barley: Postemergence
Method in brief: (§3)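 Visual injury ratings on a 0–100 scale, where 100 means complete control, were made 13 to 15 days after postemergence treatment of greenhouse-grown plants at the 1- to 4-leaf stage.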

[9] = test system: windgrass (Apera spica-venti); test: Test B postemergence plant response; conditions: for Plant response rating, Windgrass: Postemergence
Method in brief: as §3

[10] = test system: chickweed (Stellaria media); test: Test B postemergence plant response; conditions: for Plant response rating, Chickweed: Postemergence
Method in brief: as §3

[11] = test system: canarygrass (Phalaris minor); test: Test B postemergence plant response; conditions: for Plant response rating, Canarygrass: Postemergence
Method in brief: as §3

[12] = Postemergence, 16 g ai/ha, scale 0 to 100
[13] = Postemergence, 31 g ai/ha, scale 0 to 100, 0 no effect, 100 complete control
[14] = Postemergence, 62 g ai/ha, scale 0 to 100
[15] = Postemergence, 125 g ai/ha, scale 0 to 100
[16] = Preemergence, 16 g ai/ha, scale 0 to 100 (0 no effect, 100 complete control)
[17] = Preemergence, 31 g ai/ha, 0 to 100 scale, 0 no effect, 100 complete control
[18] = Preemergence, 62 g ai/ha, scale 0 to 100
[19] = Preemergence, 125 g ai/ha, scale 0 to 100
[20] = Postemergence, 125 g ai/ha, 0 to 100 scale, 0 no effect, 100 complete control
[21] = Postemergence, 500 g ai/ha, 0 to 100 scale, 0 no effect, 100 complete control
[22] = Preemergence, 125 g ai/ha, 0 to 100 scale (0 no effect, 100 complete control)
[23] = Preemergence, 500 g ai/ha, 0 to 100 scale (0 no effect, 100 complete control)
[24] = 16 g ai/ha, scale 0 to 100, 0 no effect, 100 complete control
[25] = 31 g ai/ha, scale 0 to 100, 0 no effect, 100 complete control
[26] = 8 g ai/ha, postemergence, 0-100 scale
[27] = Postemergence, 31 g ai/ha, scale 0 to 100
[28] = Postemergence, 62 g ai/ha, scale 0 to 100, 0 no effect, 100 complete control
[29] = Preemergence, 8 g ai/ha, scale 0 to 100
[30] = Preemergence, 16 g ai/ha, scale 0 to 100
[31] = Postemergence, 31 g ai/ha, 0 to 100 scale, 0 no effect, 100 complete control
[32] = Preemergence, 31 g ai/ha, 0 to 100 scale, 0 is no effect, 100 is complete control
[33] = 62 g ai/ha, scale 0 to 100, 0 no effect, 100 complete control

CCc1cc(-c2ccc(C(F)(F)F)cc2)nn1-c1c(OC(=O)OC(C)C)cnn(C)c1=O [Compound 12]
Plant response rating, Ryegrass, Italian [1, 12]: 100 | Plant response rating, Ryegrass, Italian [1, 13]: 100 | Plant response rating, Ryegrass, Italian [1, 14]: 100 | Plant response rating, Ryegrass, Italian [1, 15]: 100 | Plant response rating, Ryegrass, Italian [1, 16]: 90 | Plant response rating, Ryegrass, Italian [1, 17]: 95 | Plant response rating, Ryegrass, Italian [1, 18]: 100 | Plant response rating, Ryegrass, Italian [1, 19]: 100 | Plant response rating, Bermudagrass [2, 12]: 100 | Plant response rating, Bermudagrass [2, 13]: 100 | Plant response rating, Bermudagrass [2, 14]: 100 | Plant response rating, Bermudagrass [2, 15]: 100 | Plant response rating, Bermudagrass [2, 16]: 100 | Plant response rating, Bermudagrass [2, 17]: 100 | Plant response rating, Bermudagrass [2, 18]: 100 | Plant response rating, Bermudagrass [2, 19]: 100 | Plant response rating, Johnsongrass [3, 12]: 100 | Plant response rating, Johnsongrass [3, 13]: 100 | Plant response rating, Johnsongrass [3, 14]: 100 | Plant response rating, Johnsongrass [3, 15]: 100 | Plant response rating, Johnsongrass [3, 16]: 70 | Plant response rating, Johnsongrass [3, 17]: 95 | Plant response rating, Johnsongrass [3, 18]: 100 | Plant response rating, Johnsongrass [3, 19]: 100 | Plant response rating, Morningglory [4, 20]: 0 | Plant response rating, Morningglory [4, 21]: 0 | Plant response rating, Morningglory [4, 22]: 0 | Plant response rating, Morningglory [4, 23]: 0 | Plant response rating, Pigweed [5, 20]: 0 | Plant response rating, Pigweed [5, 21]: 0 | Plant response rating, Pigweed [5, 22]: 0 | Plant response rating, Pigweed [5, 23]: 0 | Plant response rating, Barnyardgrass [6, 20]: 90 | Plant response rating, Barnyardgrass [6, 21]: 100 | Plant response rating, Barnyardgrass [6, 22]: 100 | Plant response rating, Barnyardgrass [6, 23]: 100 | Plant response rating, Corn (corn (Zea mays); [20]): 90 | Plant response rating, Corn (corn (Zea mays); [21]): 90 | Plant response rating, Corn (corn (Zea mays); [22]): 80 | Plant response rating, Corn (corn (Zea mays); [23]): 90 | Plant response rating, Crabgrass, Large [7, 20]: 90 | Plant response rating, Crabgrass, Large [7, 21]: 100 | Plant response rating, Crabgrass, Large [7, 22]: 100 | Plant response rating, Crabgrass, Large [7, 23]: 100 | Plant response rating, Barley [8, 24]: 80 | Plant response rating, Barley [8, 25]: 95 | Plant response rating, Barley ([8]; 62 g ai/ha, scale 0 to 100): 100 | Plant response rating, Barley ([8]; 125 g ai/ha, scale 0 to 100): 100 | Plant response rating, Windgrass ([9]; 16 g ai/ha, scale 0 to 100): 100 | Plant response rating, Windgrass [9, 25]: 100 | Plant response rating, Windgrass ([9]; 62 g ai/ha, scale 0 to 100): 100 | Plant response rating, Windgrass ([9]; 125 g ai/ha, scale 0 to 100): 100 | Plant response rating, Chickweed ([10]; 16 g ai/ha, scale 0 to 100): 0 | Plant response rating, Chickweed [10, 25]: 0 | Plant response rating, Chickweed ([10]; 62 g ai/ha, scale 0 to 100): 0 | Plant response rating, Chickweed ([10]; 125 g ai/ha, scale 0 to 100): 0 | Plant response rating, Canarygrass ([11]; 16 g ai/ha, scale 0 to 100): 100 | Plant response rating, Canarygrass [11, 25]: 100 | Plant response rating, Canarygrass ([11]; 62 g ai/ha, scale 0 to 100): 100 | Plant response rating, Canarygrass ([11]; 125 g ai/ha, scale 0 to 100): 100

Cc1cc(-c2ccc(Cl)cc2)nn1-c1c(OC(=O)Oc2ccccc2)cnn(C)c1=O [Compound 54]
Ryegrass, Italian plant response rating [1, 26]: 75 | Plant response rating, Ryegrass, Italian [1, 12]: 95 | Plant response rating, Ryegrass, Italian [1, 27]: 95 | Plant response rating, Ryegrass, Italian [1, 28]: 100 | Plant response rating, Ryegrass, Italian ([1]; Preemergence, 31 g ai/ha, scale 0 to 100 (0 no effect, 100 complete control)): 90 | Plant response rating, Ryegrass, Italian [1, 18]: 100 | Ryegrass, Italian plant response rating [1, 29]: 20 | Ryegrass, Italian plant response rating [1, 30]: 90 | Bermudagrass plant response rating ([2]; postemergence, 0-100 scale): 100 | Plant response rating, Bermudagrass [2, 12]: 100 | Plant response rating, Bermudagrass [2, 27]: 100 | Plant response rating, Bermudagrass [2, 28]: 100 | Bermudagrass plant response rating ([2]; Preemergence, scale 0 to 100 (0 no effect, 100 complete control)): 0 | Plant response rating, Bermudagrass [2, 16]: 0 | Plant response rating, Bermudagrass [2, 17]: 0 | Plant response rating, Bermudagrass [2, 18]: 0 | Johnsongrass plant response rating [3, 26]: 0 | Plant response rating, Johnsongrass [3, 12]: 25 | Plant response rating, Johnsongrass [3, 27]: 80 | Plant response rating, Johnsongrass [3, 28]: 100 | Plant response rating, Johnsongrass [3, 17]: 75 | Plant response rating, Johnsongrass [3, 18]: 90 | Johnsongrass plant response rating [3, 29]: 0 | Johnsongrass plant response rating [3, 30]: 40 | Plant response rating, Morningglory [4, 31]: 0 | Plant response rating, Morningglory [4, 20]: 0 | Plant response rating, Morningglory [4, 32]: 0 | Plant response rating, Morningglory [4, 22]: 20 | Plant response rating, Pigweed [5, 31]: 0 | Plant response rating, Pigweed [5, 20]: 0 | Plant response rating, Pigweed [5, 32]: 0 | Plant response rating, Pigweed [5, 22]: 0 | Plant response rating, Barnyardgrass [6, 31]: 80 | Plant response rating, Barnyardgrass [6, 20]: 100 | Plant response rating, Barnyardgrass [6, 32]: 70 | Plant response rating, Barnyardgrass [6, 22]: 100 | Plant response rating, Corn (corn (Zea mays); [31]): 40 | Plant response rating, Corn (corn (Zea mays); [20]): 90 | Plant response rating, Corn (corn (Zea mays); [32]): 0 | Plant response rating, Corn (corn (Zea mays); [22]): 60 | Plant response rating, Crabgrass, Large [7, 31]: 70 | Plant response rating, Crabgrass, Large [7, 20]: 90 | Plant response rating, Crabgrass, Large [7, 32]: 60 | Plant response rating, Crabgrass, Large [7, 22]: 100 | Barley plant response rating [8, 26]: 0 | Plant response rating, Barley [8, 24]: 0 | Plant response rating, Barley [8, 25]: 0 | Plant response rating, Barley [8, 33]: 0 | Windgrass plant response rating [9, 26]: 0 | Plant response rating, Windgrass ([9]; 16 g ai/ha, scale 0 to 100): 20 | Plant response rating, Windgrass ([9]; 31 g ai/ha, scale 0 to 100): 20 | Plant response rating, Windgrass [9, 33]: 80 | Chickweed plant response rating [10, 26]: 0 | Plant response rating, Chickweed ([10]; 16 g ai/ha, scale 0 to 100): 0 | Plant response rating, Chickweed ([10]; 31 g ai/ha, scale 0 to 100): 0 | Plant response rating, Chickweed [10, 33]: 0 | Canarygrass plant response rating [11, 26]: 0 | Plant response rating, Canarygrass ([11]; 16 g ai/ha, scale 0 to 100): 0 | Plant response rating, Canarygrass ([11]; 31 g ai/ha, scale 0 to 100): 0 | Plant response rating, Canarygrass [11, 33]: 0
